Values of other authors as cited in patent publication US20080153925A1, “Use of Amphiphilic Copolymers as Solubilising Agents” (BASF Aktiengesellschaft, priority 2004, published 2008).
Converted amounts (≈) assume the structure as drawn.

Conditions: literature values

| Structure (SMILES) | Solubility in water (without copolymer) |
| --- | --- |
| Nc1ccc(S(=O)(=O)Nc2nccs2)cc1 [Sulfathiazole] | 445 µg/mL (≈ 1740 µM) |
| CCCCC(CC)COC(=O)c1ccc(Nc2nc(Nc3ccc(C(=O)OCC(CC)CCCC)cc3)nc(Nc3ccc(C(=O)OCC(CC)CCCC)cc3)n2)cc1 (centres unmarked) [Uvinul ® T150, tris(2-ethylhexyl) 4,4′,4″-(1,3,5-triazine-2,4,6-triyltriimino)trisbenzoate] | 0.007 µg/mL (≈ 0.0085 µM) |
